Laboratory results reported in patent publication US8338599B2, “Compounds having a potentiating effect on the activity of ethionamide and uses thereof” (priority 2006, dated 2012).
Converted amounts (≈) assume the structure as drawn. “And” between values parts separate entries of the source, which are not always exact repeats. Equal entries are not always repeated.

Key:
[1] = molecular target: T1, EthR protein (Mycobacterium tuberculosis, UniProt P9WMC1); experiment: Inhibition of interaction of EthR with its target DNA sequence (BIAcore); type: binding, M. tuberculosis H37Rv; conditions: compound 3 μM, EthR 540 nM, 37° C.
T1 sequence (P9WMC1 whole entry, looked up): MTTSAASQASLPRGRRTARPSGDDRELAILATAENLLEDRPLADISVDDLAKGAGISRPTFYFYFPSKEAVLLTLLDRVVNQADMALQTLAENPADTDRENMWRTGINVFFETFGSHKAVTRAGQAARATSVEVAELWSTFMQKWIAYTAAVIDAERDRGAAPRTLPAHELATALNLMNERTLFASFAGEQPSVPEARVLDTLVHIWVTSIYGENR
Procedure: a) Measurement of the Activity of the Compounds on the Inhibition of Interaction of EthR with its Target DNA Sequence
The in vitro measurements of inhibition of binding of the EthR protein to its target DNA sequence were performed on a machine of BIAcore®2000 type (AB, Uppsala, Sweden).
The chips used are CM5 chips sold by the company GE Healthcare. Both the channels of a chip were activated with a solution containing 200 mM of EDC(N-ethyl-N′-(3-[…])carbodiimide) and 50 mM of NHS (N-hydroxysuccinimide). Next, streptavidin (500 ng/μl in a solution containing 10 mM of sodium acetate (pH 3.5) was injected over 12 minutes at a flow rate of 10 μl/minute. The 106-base-pair biotinylated DNA fragment corresponding to the ethA-R intergene region was deposited on one of the two channels of the chip at a rate of 200 ng/ml in order to obtain stable binding of streptavidin corresponding to 50 RU (resonance units). This DNA fragment was obtained by PCR using the chromosomal DNA of M. tuberculosis H37Rv as matrix and O-270: 5′-[…]-3′ (SEQ ID: No. 1) and O-271: 5′-biotin-[…]-3′ (SEQ ID: No. 2). The second channel was functionalized with a 113-base-pair biotinylated DNA fragment (fragment +14 to +127 of the bla gene of E. coli PCR-amplified using the following oligonucleotides: O-343: 5′-[…]-3′ (SEQ ID: No. 3) and O-344: 5′-biotin-[…]-3′ (SEQ ID: No. 4).
Measurement of the binding of the EthR protein to the immobilized DNA was performed at 37° C. in a reference buffer containing 10 mM of Tris-HCl (pH=7.5), 200 mM of NaCl, 0.1 mM of EDTA, 1 mM of DTT and 1% of DMSO at a flow rate of 20 μl/minute. The specific interaction (SI) of EthR with the 106-base-pair double-stranded DNA sequence, expressed in resonance units, corresponds to the difference in signal observed between the two channels.
For each inhibition measurement, the compounds of the invention are dissolved in the reference buffer at a concentration of 3 μM. The compounds of the invention are then incubated in the presence of the protein (540 nM) at 37° C. for 5 minutes, and each solution is then injected onto the two channels of the chip for 3 minutes at a flow rate of 20 μl/minute. The inhibition values are calculated at the end of the injection according to the following equation: […]
in which SIEthR corresponds to the value measured without ligand and SIEthR+ligand corresponds to the value measured in the presence of to ligand.

[2] = molecular target: T1, EthR protein; experiment: In vitro measurement of the IC50 (EthR/DNA binding, BIAcore); design: species or system M. tuberculosis H37Rv
Procedure: b) In Vitro Measurement of the IC50 of the Compounds of the Invention.
The in vitro measurement of this datum was performed according to the same principle as for the measurement of inhibition of the EthR/DNA binding using the BIAcore technique.
The specific interaction between EthR and the specific 106-bp DNA fragment was measured on a range of six concentrations of the compounds of the invention, this range extending from 0.11 μM to 27 μM. The IC50 values are then extrapolated from the sigmoid curves obtained.

[3] = tested on: M. bovis BCG; type: cell-based, M. bovis BCG 1173P2; conditions: from MIC of ETH alone (6 μM) and MIC of ETH with 25 μM compound
[4] = tested on: M. tuberculosis H37Rv; experiment: Ethionamide-potentiating effect, fluorimetric detection on Bactec MGIT 960; type: cell-based
[5] = Measurement of the solubility (PBS pH 7.4 vs methanol, LC/MS); type: physicochemical; conditions: pH 7.4, aqueous buffer, kinetic from dmso stock
Procedure: e) Measurement of the Solubility of the Compounds of the Invention
40 μl of a solution containing a compound of the invention at a concentration of 10 mM in DMSO were diluted in 1.960 ml of methanol, and another 40 μl were diluted in 1.960 ml of a PBS solution containing 675 mM of NaCl, 13.5 mM of KCl, 50 mM of Na2HPO4.2H2O and 10 mM of KH2PO4 at a pH of 7.4. The two solutions were stirred for 24 hours at room temperature, and then centrifuged for 5 minutes and filtered through 0.45 μm filters. 20 μl of each solution were then diluted in 118 μl of methanol and analyzed by liquid chromatography coupled to mass spectrometry (LC/MS). The solubility was determined by the ratio of the areas under the curve of the mass signal for the compound of the invention, according to the following equation: […]

[6] = strain 1%, no ETH, ligand 25 μM
[7] = strain 100%, ETH 0.025 μg/mL + ligand 25 μM
[8] = strain 100%, ETH 0.05 μg/mL + ligand 25 μM
[9] = strain 100%, ETH 0.1 μg/mL + ligand 25 μM
[10] = strain 100%, ETH 0.25 μg/mL + ligand 25 μM
[11] = strain 100%, no ETH, ligand 25 μM

Question: Which results are given for `O=C(Cc1cccs1)N1CCC(c2nc(-c3cccs3)no2)CC1` [Compound 43, 2-thiophen-2-yl-1-[4-(3-thiophen-2-yl[1,2,4]oxadiazol-5-yl)piperid-1-yl]ethanone]?
Answer: inhibition at 3 µM [1]: 93%; IC50 [2]: 520 nM; Potentiation % [3]: 2500%; bacterial growth-inhibiting properties of the compound alone ([4]; 25 μM, no ETH (lines A5 and D3)): absence of bacterial growth-inhibiting properties; MIC ([4]; Mycobacterium tuberculosis, H37RV, compound 25 μM, read-out: MIC for ETH in the presence of compound): < 0.025 µg/mL and < 0.15 µM; potentiation of the ethionamide activity (factor) ([4]; compound 25 μM): ≥ 40 fold; potentiation of the ethionamide activity (factor) ([4]; compound 25 μM, listed as compound 43): about 40 fold; State [4, 6]: R; fluorescence reading D + 0 [4, 6]: 0; fluorescence reading D + 1 [4, 6]: 0; fluorescence reading D + 5 (first column, c6) [4, 6]: 0; fluorescence reading D + 5 (second column, c7) [4, 6]: 0; fluorescence reading D + 6 [4, 6]: 0; fluorescence reading D + 7 (first column, c9) [4, 6]: 168; fluorescence reading D + 7 (second column, c10) [4, 6]: 292; fluorescence reading J + 8 [4, 6]: 400; State [4, 7]: S; fluorescence reading D + 0 [4, 7]: 0; fluorescence reading D + 1 [4, 7]: 0; fluorescence reading D + 5 (first column, c6) [4, 7]: 0; fluorescence reading D + 5 (second column, c7) [4, 7]: 0; fluorescence reading D + 6 [4, 7]: 0; fluorescence reading D + 7 (first column, c9) [4, 7]: 0; fluorescence reading D + 7 (second column, c10) [4, 7]: 0; fluorescence reading J + 8 [4, 7]: 0; State [4, 8]: S; fluorescence reading D + 0 [4, 8]: 0; fluorescence reading D + 1 [4, 8]: 0; fluorescence reading D + 5 (first column, c6) [4, 8]: 0; fluorescence reading D + 5 (second column, c7) [4, 8]: 0; fluorescence reading D + 6 [4, 8]: 0; fluorescence reading D + 7 (first column, c9) [4, 8]: 0; fluorescence reading D + 7 (second column, c10) [4, 8]: 0; fluorescence reading J + 8 [4, 8]: 0; State [4, 9]: S; fluorescence reading D + 0 [4, 9]: 0; fluorescence reading D + 1 [4, 9]: 0; fluorescence reading D + 5 (first column, c6) [4, 9]: 0; fluorescence reading D + 5 (second column, c7) [4, 9]: 0; fluorescence reading D + 6 [4, 9]: 0; fluorescence reading D + 7 (first column, c9) [4, 9]: 0; fluorescence reading D + 7 (second column, c10) [4, 9]: 0; fluorescence reading J + 8 [4, 9]: 0; State [4, 10]: S; fluorescence reading D + 0 [4, 10]: 0; fluorescence reading D + 1 [4, 10]: 0; fluorescence reading D + 5 (first column, c6) [4, 10]: 0; fluorescence reading D + 5 (second column, c7) [4, 10]: 0; fluorescence reading D + 6 [4, 10]: 0; fluorescence reading D + 7 (first column, c9) [4, 10]: 0; fluorescence reading D + 7 (second column, c10) [4, 10]: 0; fluorescence reading J + 8 [4, 10]: 0; State [4, 11]: R; fluorescence reading D + 0 [4, 11]: 0; fluorescence reading D + 1 [4, 11]: 0; fluorescence reading D + 5 (first column, c6) [4, 11]: 400; fluorescence reading D + 5 (second column, c7) [4, 11]: 400; fluorescence reading D + 6 [4, 11]: 400; fluorescence reading D + 7 (first column, c9) [4, 11]: 400; fluorescence reading D + 7 (second column, c10) [4, 11]: 400; fluorescence reading J + 8 [4, 11]: 400; solubility at 24 h [5]: 26.9 µg/mL (≈ 74.8 µM)
